Counter-ions that a name gives are not always drawn.
target: T1, human TGR5 (Homo sapiens, UniProt Q8TDU6); experiment: Cell-based TGR5 assay (cAMP generation, HTRF); details: HEK293 cells stably transfected with human TGR5; cAMP by HTRF; 30 minutes at 37° C.; read-out: pEC50 Human TGR5 (converted)
T1 construct: expressed in transfected cells; host or cells: HEK293
T1 sequence (Q8TDU6 1-330): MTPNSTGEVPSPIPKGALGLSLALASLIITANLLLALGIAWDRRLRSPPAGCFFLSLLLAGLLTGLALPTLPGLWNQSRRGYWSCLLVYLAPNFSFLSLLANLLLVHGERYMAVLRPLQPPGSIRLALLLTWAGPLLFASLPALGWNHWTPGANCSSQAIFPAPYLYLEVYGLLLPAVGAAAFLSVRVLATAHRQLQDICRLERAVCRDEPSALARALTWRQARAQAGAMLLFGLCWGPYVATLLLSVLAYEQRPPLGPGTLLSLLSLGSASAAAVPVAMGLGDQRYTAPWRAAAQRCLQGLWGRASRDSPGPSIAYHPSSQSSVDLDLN
In short: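 First, compounds in 3-fold serial dilution were placed in HBSS with 10 mM HEPES pH 7.4 and 0.5 mM IBMX. Next, human TGR5-expressing HEK293 cells were added and incubated 30 min at 37° C. Finally, cAMP was detected by HTRF and pEC50 derived by logistic fitting.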

SMILES | EC50 [nM]
COc1c(F)cc(CNC2(c3cnccc3-c3ccccc3OC3CC3)CC2)c(C)c1Cl [Compound I-36, N-[(3-chloro-5-fluoro-4-methoxy-2-methylphenyl)methyl]-1-[4-(2-cyclopropoxyphenyl)pyridin-3-yl]cyclopropan-1-amine] | 126 to 1000
Cc1ccc(C(F)(F)F)cc1CNC1(c2cnccc2-c2ccccc2OC2CC2)CC1 [Compound I-37, 1-[4-(2-cyclopropoxyphenyl)pyridin-3-yl]-N-{[2-methyl-5-(trifluoromethyl)phenyl]methyl}cyclopropan-1-amine] | < 100
COc1cc(C)c(CNC2(c3cnccc3-c3ccccc3OC3CC3)CC2)cc1C(C)C [Compound I-38, 1-[4-(2-cyclopropoxyphenyl)pyridin-3-yl]-N-{[4-methoxy-2-methyl-5-(propan-2-yl)phenyl]methyl}cyclopropan-1-amine] | 126 to 1000
CSc1cnc(CNC2(c3cnccc3-c3ccccc3OC3CC3)CC2)c(C)c1 [Compound I-39, 1-[4-(2-cyclopropoxyphenyl)pyridin-3-yl]-N-{[3-methyl-5-(methylsulfanyl)pyridin-2-yl]methyl}cyclopropan-1-amine] | 126 to 1000
Cc1ccc(Cl)cc1CNC1(c2cnccc2-c2ccccc2OC2CC2)CC1 [Compound I-40, N-[(5-chloro-2-methylphenyl)methyl]-1-[4-(2-cyclopropoxyphenyl)pyridin-3-yl]cyclopropan-1-amine] | < 100
CSc1cnc(C)cc1CNC1(c2cnccc2-c2ccccc2OC2CC2)CC1 [Compound I-42, 1-[4-(2-cyclopropoxyphenyl)pyridin-3-yl]-N-{[2-methyl-5-(methylsulfanyl)pyridin-4-yl]methyl}cyclopropan-1-amine] | < 100
CS(=O)(=O)c1ccc(Cl)cc1CNC1(c2cnccc2-c2ccccc2OC2CC2)CC1 [Compound I-43, N-[(5-chloro-2-methanesulfonylphenyl)methyl]-1-[4-(2-cyclopropoxyphenyl)pyridin-3-yl]cyclopropan-1-amine] | 126 to 1000
Clc1cc(Cl)cc(CNC2(c3cnccc3-c3ccccc3OC3CC3)CC2)c1 [Compound I-44, 1-[4-(2-cyclopropoxyphenyl)pyridin-3-yl]-N-[(3,5-dichlorophenyl)methyl]cyclopropan-1-amine] | 1260 to 10000
Clc1ccc(Cl)c(COC2(c3cnccc3-c3ccccc3OC3CCC3)CC2)c1 [Compound I-49, 4-(2-cyclobutoxyphenyl)-3-{1-[(2,5-dichlorophenyl)methoxy]cyclopropyl}pyridine] | < 100
O=C(NCCCCCc1cc(Cl)c(CNC2(c3cnccc3-c3ccccc3OC3CC3)CC2)cc1Cl)NC[C@H](O)[C@@H](O)[C@H](O)[C@H](O)CO [Compound I-60, 1-(5-[2,5-dichloro-4-[([1-[4-(2-cyclopropoxyphenyl)pyridin-3-yl]cyclopropyl]amino)methyl]phenyl]pentyl)-3-[(2S,3R,4R,5R)-2,3,4,5,6-pentahydroxyhexyl]urea hydrochloride] | < 100
O=C(O)CCCCc1cc(Cl)c(CNC2(c3cnccc3-c3ccccc3OC3CC3)CC2)cc1Cl [Compound I-61, 5-[2,5-dichloro-4-[([1-[4-(2-cyclopropoxyphenyl)pyridin-3-yl]cyclopropyl]amino)methyl]phenyl]pentanoic acid] | 126 to 1000
O=C(CCCCc1cc(Cl)c(CNC2(c3cnccc3-c3ccccc3OC3CC3)CC2)cc1Cl)NC[C@H](O)[C@@H](O)[C@H](O)[C@H](O)CO [Compound I-62, 5-[2,5-dichloro-4-[([1-[4-(2-cyclopropoxyphenyl)pyridin-3-yl]cyclopropyl]amino)methyl]phenyl]-N-[(2S,3R,4R,5R)-2,3,4,5,6-pentahydroxyhexyl]pentanamide] | 126 to 1000

Second part, the molecule after the results:

EC50 [nM] | SMILES
< 100 | COc1ccccc1-c1ccncc1C1(OCc2cc(Cl)ccc2Cl)CC1 [Compound I-45, 3-[1-[(2,5-dichlorophenyl)methoxy]cyclopropyl]-4-(2-methoxyphenyl)pyridine]
< 100 | Clc1ccc(Cl)c(COC2(c3cnccc3-c3ccccc3OC3CC3)CC2)c1 [Compound I-46, 4-(2-cyclopropoxyphenyl)-3-{1-[(2,5-dichlorophenyl)methoxy]cyclopropyl}pyridine]
126 to 1000 | Clc1cccc(COC2(c3cnccc3-c3ccccc3OC3CC3)CC2)c1Cl [Compound I-47, 4-(2-cyclopropoxyphenyl)-3-{1-[(2,3-dichlorophenyl)methoxy]cyclopropyl}pyridine]
126 to 1000 | Clc1ccc(COC2(c3cnccc3-c3ccccc3OC3CC3)CC2)c(Cl)c1 [Compound I-48, 4-(2-cyclopropoxyphenyl)-3-{1-[(2,4-dichlorophenyl)methoxy]cyclopropyl}pyridine]
1260 to 10000 | Fc1ccccc1-c1ccncc1C1(OCc2cc(Cl)ccc2Cl)CC1 [Compound I-50, 3-{1-[(2,5-dichlorophenyl)methoxy]cyclopropyl}-4-(2-fluorophenyl)pyridine]
126 to 1000 | FC(F)(F)c1ccc(Cl)cc1COC1(c2cnccc2-c2ccccc2OC2CC2)CC1 [Compound I-51, 3-(1-{[5-chloro-2-(trifluoromethyl)phenyl]methoxy}cyclopropyl)-4-(2-cyclopropoxyphenyl) pyridine]
< 100 | FC(F)(F)c1ccc(Cl)c(COC2(c3cnccc3-c3ccccc3OC3CC3)CC2)c1 [Compound I-52, 3-(1-{[2-chloro-5-(trifluoromethyl)phenyl]methoxy}cyclopropyl)-4-(2-cyclopropoxyphenyl)pyridine]
< 100 | Clc1ccc(C2CC2)cc1COC1(c2cnccc2-c2ccccc2OC2CC2)CC1 [Compound I-53, 3-{1-[(2-chloro-5-cyclopropylphenyl)methoxy]cyclopropyl}-4-(2-cyclopropoxyphenyl)pyridine]
< 100 | Cc1ccc(Cl)c(COC2(c3cnccc3-c3ccccc3OC3CC3)CC2)c1 [Compound I-54, 3-{1-[(2-chloro-5-methylphenyl)methoxy]cyclopropyl}-4-(2-cyclopropoxyphenyl)pyridine]
< 100 | Cc1ccc(Cl)cc1COC1(c2cnccc2-c2ccccc2OC2CC2)CC1 [Compound I-55, 3-{1-[(5-chloro-2-methylphenyl)methoxy]cyclopropyl}-4-(2-cyclopropoxyphenyl)pyridine]
1260 to 10000 | Clc1cc(Cl)cc(COC2(c3cnccc3-c3ccccc3OC3CC3)CC2)c1 [Compound I-56, 4-(2-cyclopropoxyphenyl)-3-{1-[(3,5-dichlorophenyl)methoxy]cyclopropyl}pyridine]
1260 to 10000 | NC(=O)N(Cc1cc(Cl)ccc1Cl)C1(c2cnccc2-c2ccccc2OC2CC2)CC1 [Compound I-57, 1-[1-[4-(2-cyclopropoxyphenyl)pyridin-3-yl]cyclopropyl]-1-[(2,5-dichloro-phenyl)methyl]urea]
1260 to 10000 | CN(Cc1cc(Cl)ccc1Cl)C1(c2cnccc2-c2ccccc2OC2CC2)CC1 [Compound I-58, 1-[4-(2-cyclopropoxyphenyl)pyridin-3-yl]-N-[(2,5-dichlorophenyl)methyl]-N-1-amine]
< 100 | Clc1ccc(Cl)c(COC2(c3cnccc3-c3ccccc3OC3CC3)COC2)c1 [Compound I-59, 4-(2-cyclopropoxyphenyl)-3-[3-[(2,5-dichlorophenyl)methoxy]oxetan-3-yl]pyridine]

Reference: US12084472B2 (Ardelyx, Inc., priority 2015, dated 2024)
